Patent US20240140991A1, “ANTIBIOTIC NATURAL PRODUCT ANALOGUES” (THE QUEEN'S UNIVERSITY OF BELFAST, priority 2021, published 2024)
Converted amounts (≈) assume the structure as drawn. Positions of bridges follow the written chain, without caps; N, C: chain ends. Non-standard residues stand in square brackets, D forms with d. Residues, ends and D or L forms follow the SMILES beside them. *: point of attachment. Octanoyl(7-Me) = CC(C)CCCCCC(=O)*; dOrn = NCCC[C@@H](N)C(=O)O; Octanoyl = CCCCCCCC(=O)*; Orn = NCCC[C@H](N)C(=O)O; Dap = NC[C@H](N)C(=O)O; Alloc = C=CCOC(=O)*

System: Escherichia coli ATCC 25922
Format: cell-based
Conditions: for Minimum inhibitory concentration (MIC): ATCC 25922
Procedure, shortened: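 Broth microdilution in MHB per CLSI; inoculum 2×10^5 CFU mL^−1 from log-phase TSB cultures at OD600 0.5. Plates incubated 16 hours at 37° C with shaking at 220 rpm. MIC is the lowest concentration preventing visible growth.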

Molecule	Minimum inhibitory concentration (MIC) [µg/mL]	MIC values against E. coli ATCC 25922 (in vitro activity quoted in the in vivo section) [µg/mL]
CC[C@H](C)[C@H](NC(=O)[C@H](CC(C)C)NC(=O)[C@H](Cc1c[nH]c2ccccc12)NC(=O)[C@@H](CCCN)NC(=O)CNC(=O)[C@H](CCCN)NC(=O)[C@@H](CCCN)NC(=O)[C@@H](Cc1c[nH]c2ccccc12)NC(=O)[C@@H](Cc1ccc(O)cc1)NC(=O)[C@@H](CO)NC(=O)CCCCCC(C)C)C(=O)N[C@@H](CC(N)=O)C(=O)NCC(=O)NCC(N)=O [Leu9-CONH2] ({Octanoyl(7-Me)}-[dS][dY][dW][dOrn][Orn]G[dOrn]WLINGG-NH2)	2 to 4	
CC[C@H](C)[C@H](NC(=O)[C@H](C)NC(=O)[C@H](Cc1c[nH]c2ccccc12)NC(=O)[C@@H](CCCN)NC(=O)CNC(=O)[C@H](CCCN)NC(=O)[C@@H](CCCN)NC(=O)[C@@H](Cc1c[nH]c2ccccc12)NC(=O)[C@@H](Cc1ccc(O)cc1)NC(=O)[C@@H](CO)NC(=O)CCCCCC(C)C)C(=O)N[C@@H](CC(N)=O)C(=O)NCC(=O)NCC(N)=O [Ala9 (Thr→Ala), FA-sywoOGoWAINGG-CONH2] ({Octanoyl(7-Me)}-[dS][dY][dW][dOrn][Orn]G[dOrn]WAINGG-NH2)	2 (≈ 1.26 µM)	
CC[C@H](C)[C@@H]1NC(=O)[C@@H](NC(=O)[C@H](Cc2c[nH]c3ccccc23)NC(=O)[C@@H](CCCN)NC(=O)CNC(=O)[C@H](CCCN)NC(=O)[C@@H](CCCN)NC(=O)[C@@H](Cc2c[nH]c3ccccc23)NC(=O)[C@@H](Cc2ccc(O)cc2)NC(=O)[C@@H](CO)NC(=O)CCCCCC(C)C)[C@@H](C)OC(=O)[C@H](C)NC(=O)[C@H](CO)NC(=O)CNC1=O [Compound R9] ({Octanoyl(7-Me)}-[dS][dY][dW][dOrn][Orn]G[dOrn]WTIGSA; ester 9-C; N-terminus assumed)	1 to 2	
CC[C@H](C)[C@H](NC(=O)[C@H](Cc1ccccc1)NC(=O)[C@H](Cc1c[nH]c2ccccc12)NC(=O)[C@@H](CCCN)NC(=O)CNC(=O)[C@H](CCCN)NC(=O)[C@@H](CCCN)NC(=O)[C@@H](Cc1c[nH]c2ccccc12)NC(=O)[C@@H](Cc1ccc(O)cc1)NC(=O)[C@@H](CO)NC(=O)CCCCCC(C)C)C(=O)N[C@@H](CC(N)=O)C(=O)NCC(=O)NCC(N)=O [Phe9-CONH2] ({Octanoyl(7-Me)}-[dS][dY][dW][dOrn][Orn]G[dOrn]WFINGG-NH2)	2 (≈ 1.2 µM)	
CC[C@H](C)[C@H](NC(=O)[C@H](CO)NC(=O)[C@H](Cc1c[nH]c2ccccc12)NC(=O)[C@@H](CCCN)NC(=O)CNC(=O)[C@H](CCCN)NC(=O)[C@@H](CCCN)NC(=O)[C@@H](Cc1c[nH]c2ccccc12)NC(=O)[C@@H](Cc1ccc(O)cc1)NC(=O)[C@@H](CO)NC(=O)CCCCCC(C)C)C(=O)N[C@@H](CC(N)=O)C(=O)NCC(=O)NCC(N)=O [Ser9-CONH2] ({Octanoyl(7-Me)}-[dS][dY][dW][dOrn][Orn]G[dOrn]WSINGG-NH2)	2 (≈ 1.24 µM)	
CC[C@H](C)[C@H](NC(=O)[C@H](CC(N)=O)NC(=O)[C@H](Cc1c[nH]c2ccccc12)NC(=O)[C@@H](CCCN)NC(=O)CNC(=O)[C@H](CCCN)NC(=O)[C@@H](CCCN)NC(=O)[C@@H](Cc1c[nH]c2ccccc12)NC(=O)[C@@H](Cc1ccc(O)cc1)NC(=O)[C@@H](CO)NC(=O)CCCCCC(C)C)C(=O)N[C@@H](CC(N)=O)C(=O)NCC(=O)NCC(N)=O [Asn9-CONH2] ({Octanoyl(7-Me)}-[dS][dY][dW][dOrn][Orn]G[dOrn]WNINGG-NH2)	4 (≈ 2.45 µM)	
CC[C@H](C)[C@H](NC(=O)[C@@H](NC(=O)[C@H](Cc1c[nH]c2ccccc12)NC(=O)[C@@H](CCCN)NC(=O)CNC(=O)[C@H](CCCN)NC(=O)[C@@H](CCCN)NC(=O)[C@@H](Cc1c[nH]c2ccccc12)NC(=O)[C@@H](Cc1ccc(O)cc1)NC(=O)[C@@H](CO)NC(=O)CCCCCC(C)C)[C@@H](C)O)C(=O)N[C@@H](CC(N)=O)C(=O)NCC(=O)NCC(N)=O [Thr (linear laterocidine)] ({Octanoyl(7-Me)}-[dS][dY][dW][dOrn][Orn]G[dOrn]WTINGG-NH2; N-terminus and C-terminus assumed)	2 (≈ 1.23 µM)	
C=CCOC(=O)NC[C@H](NC(=O)[C@H](Cc1c[nH]c2ccccc12)NC(=O)[C@@H](CCCN)NC(=O)CNC(=O)[C@H](CCCN)NC(=O)[C@@H](CCCN)NC(=O)[C@@H](Cc1c[nH]c2ccccc12)NC(=O)[C@@H](Cc1ccc(O)cc1)NC(=O)[C@@H](CO)NC(=O)CCCCCC(C)C)C(=O)N[C@H](C(=O)N[C@@H](CC(N)=O)C(=O)NCC(=O)NCC(N)=O)[C@@H](C)CC [Dap(Alloc)] ({Octanoyl(7-Me)}-[dS][dY][dW][dOrn][Orn]G[dOrn]W[Dap](Alloc)INGG-NH2)	1 to 2	
CC[C@H](C)[C@H](NC(=O)[C@@H](NC(=O)[C@H](Cc1c[nH]c2ccccc12)NC(=O)[C@@H](CCCN)NC(=O)[C@H](C)NC(=O)[C@H](CCCN)NC(=O)[C@@H](CCCN)NC(=O)[C@@H](Cc1c[nH]c2ccccc12)NC(=O)[C@@H](Cc1ccc(O)cc1)NC(=O)[C@@H](CO)NC(=O)CCCCCC(C)C)[C@@H](C)O)C(=O)N[C@@H](CC(N)=O)C(=O)NCC(=O)NCC(N)=O [Ala6 (Gly→Ala), FA-sywoOAoWTINGG-CONH2] ({Octanoyl(7-Me)}-[dS][dY][dW][dOrn][Orn]A[dOrn]WTINGG-NH2)	4 to 8	
CC[C@H](C)[C@H](NC(=O)[C@@H](NC(=O)[C@H](Cc1c[nH]c2ccccc12)NC(=O)[C@@H](CCCN)NC(=O)CNC(=O)[C@H](CCCN)NC(=O)[C@@H](CCCN)NC(=O)[C@@H](Cc1c[nH]c2ccccc12)NC(=O)[C@@H](Cc1ccc(O)cc1)NC(=O)[C@@H](CO)NC(=O)CCCCCC(C)C)[C@@H](C)O)C(=O)N[C@@H](CC(N)=O)C(=O)NCC(=O)NCC(=O)O [Linear Laterocidine (Thr9-COOH)] ({Octanoyl(7-Me)}-[dS][dY][dW][dOrn][Orn]G[dOrn]WTINGG-OH)	4 to 8	
C=CCOC(=O)NC[C@H](NC(=O)[C@H](Cc1c[nH]c2ccccc12)NC(=O)[C@@H](CCCN)NC(=O)CNC(=O)[C@H](CCCN)NC(=O)[C@@H](CCCN)NC(=O)[C@@H](Cc1c[nH]c2ccccc12)NC(=O)[C@@H](Cc1ccc(O)cc1)NC(=O)[C@@H](CO)NC(=O)CCCCCC(C)C)C(=O)N[C@H](C(=O)N[C@@H](CC(N)=O)C(N)=O)[C@@H](C)CC [ΔG12-G13-Dap(Alloc)9-isoC9] ({Octanoyl(7-Me)}-[dS][dY][dW][dOrn][Orn]G[dOrn]W[Dap](Alloc)IN-NH2)	4 (≈ 2.54 µM)	
CC[C@H](C)[C@@H]1NC(=O)[C@@H](NC(=O)[C@H](Cc2c[nH]c3ccccc23)NC(=O)[C@@H](CCCN)NC(=O)CNC(=O)[C@H](CCCN)NC(=O)[C@@H](CCCN)NC(=O)[C@@H](Cc2c[nH]c3ccccc23)NC(=O)[C@@H](Cc2ccc(O)cc2)NC(=O)[C@@H](CO)NC(=O)CCCCCC(C)C)[C@@H](C)OC(=O)[C@H](C)NC(=O)[C@@H](CO)NC(=O)CNC1=O [Compound R10] ({Octanoyl(7-Me)}-[dS][dY][dW][dOrn][Orn]G[dOrn]WTIG[dS]A; ester 9-C; N-terminus assumed)	1 to 2	
CC[C@H](C)[C@H](NC(=O)[C@@H](NC(=O)[C@H](Cc1c[nH]c2ccccc12)NC(=O)[C@@H](CCCN)NC(=O)CNC(=O)[C@H](CCCN)NC(=O)[C@@H](CCCN)NC(=O)[C@@H](C)NC(=O)[C@@H](Cc1ccc(O)cc1)NC(=O)[C@@H](CO)NC(=O)CCCCCC(C)C)[C@@H](C)O)C(=O)N[C@@H](CC(N)=O)C(=O)NCC(=O)NCC(N)=O [Ala3 (D-Trp→D-Ala), FA-syaoOGoWTINGG-CONH2] ({Octanoyl(7-Me)}-[dS][dY][dA][dOrn][Orn]G[dOrn]WTINGG-NH2)	16 (≈ 10.6 µM)	
CC[C@H](C)[C@H](NC(=O)[C@@H](NC(=O)[C@H](Cc1c[nH]c2ccccc12)NC(=O)[C@@H](CCCN)NC(=O)CNC(=O)[C@H](C)NC(=O)[C@@H](CCCN)NC(=O)[C@@H](Cc1c[nH]c2ccccc12)NC(=O)[C@@H](Cc1ccc(O)cc1)NC(=O)[C@@H](CO)NC(=O)CCCCCC(C)C)[C@@H](C)O)C(=O)N[C@@H](CC(N)=O)C(=O)NCC(=O)NCC(N)=O [Ala5 (Orn→Ala), FA-sywoAGoWTINGG-CONH2] ({Octanoyl(7-Me)}-[dS][dY][dW][dOrn]AG[dOrn]WTINGG-NH2)	32 (≈ 20.3 µM)	
C=CCOC(=O)NC[C@H](NC(=O)[C@H](Cc1c[nH]c2ccccc12)NC(=O)[C@@H](CCCN)NC(=O)CNC(=O)[C@H](CCCN)NC(=O)[C@@H](CCCN)NC(=O)[C@@H](Cc1c[nH]c2ccccc12)NC(=O)[C@@H](Cc1ccc(O)cc1)NC(=O)[C@@H](CO)NC(=O)CCCCCCC)C(=O)N[C@H](C(=O)N[C@@H](CC(N)=O)C(N)=O)[C@@H](C)CC [ΔG12-G13-Dap(Alloc)9-C8] (Octanoyl-[dS][dY][dW][dOrn][Orn]G[dOrn]W[Dap](Alloc)IN-NH2)	4 (≈ 2.56 µM)	
polymyxin B [reference compound]		0.5
CC[C@H](C)[C@H](NC(=O)[C@H](CCC(N)=O)NC(=O)[C@H](Cc1c[nH]c2ccccc12)NC(=O)[C@@H](CCCN)NC(=O)CNC(=O)[C@H](CCCN)NC(=O)[C@@H](CCCN)NC(=O)[C@@H](Cc1c[nH]c2ccccc12)NC(=O)[C@@H](Cc1ccc(O)cc1)NC(=O)[C@@H](CO)NC(=O)CCCCCC(C)C)C(=O)N[C@@H](CC(N)=O)C(=O)NCC(=O)NCC(N)=O [Gln9-CONH2] ({Octanoyl(7-Me)}-[dS][dY][dW][dOrn][Orn]G[dOrn]WQINGG-NH2)	4 (≈ 2.43 µM)	
CC(C)CCCCCC(=O)N[C@H](CO)C(=O)N[C@H](Cc1ccc(O)cc1)C(=O)N[C@H](Cc1c[nH]c2ccccc12)C(=O)N[C@H](CCCN)C(=O)N[C@@H](CCCN)C(=O)NCC(=O)N[C@H](CCCN)C(=O)N[C@@H](Cc1c[nH]c2ccccc12)C(=O)N[C@H](C(N)=O)[C@@H](C)O [ΔI10-G13, FA-sywoOGoWT-CONH2] ({Octanoyl(7-Me)}-[dS][dY][dW][dOrn][Orn]G[dOrn]WT-NH2)	16 (≈ 12.5 µM)	
